# Results: PubChem BioAssay AID1963983 (Molecular Pharmacology Branch, DTP, NCI, 2024)
# “And” between values parts separate entries of the source, which are not always exact repeats. Equal entries are not always repeated.
# Test system: 186277-243-T-J2-PDC multi-cell spheroid viability
# Experiment: Anticancer human tumor 186277-243-T-J2-PDC patient-derived colon adenocarcinoma cell line growth inhibition [PI3K]
# Details: for viability, T/C: stronger effect = lower value
# In short: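 Multi-cell spheroids combine tumor cells with HUVEC and human MSCs, treated with targeted agents alone or with inavolisib, alpelisib, duvelisib or copanlisib. Concentrations fall in half-log steps from at or near clinical Cmax, or from 10 microM where Cmax is unknown; viability read-out.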
# 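Also: spheroids exposed to compounds for seven days before viability reading.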
# 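For viability, T/C in this document: 100% = DMSO vehicle control viability.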
smiles,measurement,setting,value
CC(Nc1ccc2c(c1)OCCn1cc(N3C(=O)OCC3C(F)F)nc1-2)C(N)=O (centres undefined),"viability, T/C",compound 0.00316 µM,99.1% [middle of 8 runs]
same,"viability, T/C",compound 0.01 µM,100% [middle of 8 runs]
same,"viability, T/C",compound 0.1 µM,98% [middle of 8 runs]
same,"viability, T/C",compound 0.316 µM,73.4% [middle of 8 runs]
same,"viability, T/C",compound 1 µM,50.1% [middle of 8 runs]
C=CC(=O)N1CCN(c2nc(=O)n(-c3c(C)ccnc3C(C)C)c3nc(-c4c(O)cccc4F)c(F)cc23)C(C)C1 (centres undefined) + CC(Nc1ccc2c(c1)OCCn1cc(N3C(=O)OCC3C(F)F)nc1-2)C(N)=O,IC50,"curve of first compound, second compound 0.00316 µM",> 10 µM
same,IC50,"curve of first compound, second compound 0.01 µM",> 10 µM
same,IC50,"curve of first compound, second compound 0.0316 µM",> 10 µM
same,IC50,"curve of first compound, second compound 0.1 µM",> 10 µM
same,IC50,"curve of first compound, second compound 0.316 µM",4.99 µM
same,IC50,"curve of first compound, second compound 1 µM",< 0.0316 µM
same,"viability, T/C","second compound 0.00316 µM, first compound 0.0316 µM",109%
same,"viability, T/C","second compound 0.00316 µM, first compound 0.1 µM",88.5%
same,"viability, T/C","second compound 0.00316 µM, first compound 0.316 µM",94.7%
same,"viability, T/C","second compound 0.00316 µM, first compound 1 µM",94.9%
same,"viability, T/C","second compound 0.00316 µM, first compound 3.16 µM",109%
same,"viability, T/C","second compound 0.00316 µM, first compound 10 µM",93.9%
same,"viability, T/C","second compound 0.01 µM, first compound 0.0316 µM",103%
same,"viability, T/C","second compound 0.01 µM, first compound 0.1 µM",99.4%
same,"viability, T/C","second compound 0.01 µM, first compound 0.316 µM",107%
same,"viability, T/C","second compound 0.01 µM, first compound 1 µM",101%
same,"viability, T/C","second compound 0.01 µM, first compound 3.16 µM",103%
same,"viability, T/C","second compound 0.01 µM, first compound 10 µM",102%
same,"viability, T/C","second compound 0.0316 µM, first compound 0.0316 µM",104%
same,"viability, T/C","second compound 0.0316 µM, first compound 0.1 µM",102%
same,"viability, T/C","second compound 0.0316 µM, first compound 0.316 µM",105%
same,"viability, T/C","second compound 0.0316 µM, first compound 1 µM",112%
same,"viability, T/C","second compound 0.0316 µM, first compound 3.16 µM",115%
same,"viability, T/C","second compound 0.0316 µM, first compound 10 µM",87.2%
same,"viability, T/C","second compound 0.1 µM, first compound 0.0316 µM",103%
same,"viability, T/C","second compound 0.1 µM, first compound 0.1 µM",107%
same,"viability, T/C","second compound 0.1 µM, first compound 0.316 µM",88.3%
same,"viability, T/C","second compound 0.1 µM, first compound 1 µM",94.4%
same,"viability, T/C","second compound 0.1 µM, first compound 3.16 µM",86.6%
same,"viability, T/C","second compound 0.1 µM, first compound 10 µM",74.4%
same,"viability, T/C","second compound 0.316 µM, first compound 0.0316 µM",82.2%
same,"viability, T/C","second compound 0.316 µM, first compound 0.1 µM",74.8%
same,"viability, T/C","second compound 0.316 µM, first compound 0.316 µM",67.7%
same,"viability, T/C","second compound 0.316 µM, first compound 1 µM",74.7%
same,"viability, T/C","second compound 0.316 µM, first compound 3.16 µM",56.9%
same,"viability, T/C","second compound 0.316 µM, first compound 10 µM",37.4%
same,"viability, T/C","second compound 1 µM, first compound 0.0316 µM",48.2%
same,"viability, T/C","second compound 1 µM, first compound 0.1 µM",50.1%
same,"viability, T/C","second compound 1 µM, first compound 0.316 µM",50.9%
same,"viability, T/C","second compound 1 µM, first compound 1 µM",48.1%
same,"viability, T/C","second compound 1 µM, first compound 3.16 µM",32.8%
same,"viability, T/C","second compound 1 µM, first compound 10 µM",22.9%
Cn1nccc1Nc1nccc(-c2ccn(C(CO)c3ccc(Cl)c(F)c3)c(=O)c2)n1 (centres undefined),"viability, T/C",compound 0.0316 µM,96.2% [middle of 4 runs]
same,"viability, T/C",compound 0.1 µM,102% and 103% (2×) and 105%
same,"viability, T/C",compound 0.316 µM,99.2% [middle of 4 runs]
same,"viability, T/C",compound 1 µM,81% [middle of 4 runs]
same,"viability, T/C",compound 3.16 µM,37.2% [middle of 4 runs]
same,"viability, T/C",compound 10 µM,26.7% [middle of 4 runs]
same,IC50,curve of compound,2.35 µM [middle of 4 runs]
